This test deals with intrinsic coagulation pathway. Description: Activated coagulation time (kaolin). Type of test: in vivo, rat. The source says:
Activated Coagulation Time (Kaolin)
This test explores the intrinsic coagulation pathway. […] These tubes contain the kaolin activator. (Method HaemoTec., automated coagulation timer manufactured by MEDTRONIC HAEMOTEC Inc., Englewood, Colo., USA).

With `C[N+](C)(C)CC(=O)O` [Glycine betaine], the “Activated coagulation time” value reads like this: (10 mg/kg subcutaneous) 128 s; (10 mg/kg subcutaneous, after 24 hours) 71 ± 3.51 s; (20 mg/kg subcutaneous, after 24 hours) 154.66 ± 11.01 s; (30 mg/kg subcutaneous) 179 s; (50 mg/kg subcutaneous) 215 s; (oral 50 mg/kg, 1 hour) 96 ± 11.27 s. Also, the Activated coagulation time by setting is: (oral 50 mg/kg, 6 hours) 124.66 ± 9.29 s; (oral 50 mg/kg, 24 hours) 64.66 ± 7.37 s; (oral 50 mg/kg, 48 hours) 55.66 ± 7.02 s. Further, the “Activated coagulation time relative to control” value (50 mg/kg subcutaneous) is given as “four times higher”.

The values above are taken from US7608640B2, “Glycine betaine and its use” (priority 2001, dated 2009).
